What was measured:
[1] = target: T1, DNA topoisomerase I (Bos taurus, UniProt F1MN93); assay: Topoisomerase I relaxation assay (supercoiled pBR322); assay type: biochemical; settings: for inhibition at 100 µM: 100 μM compound, read-out: Topo I Inhibition (%) 100 μM
T1 construct: purchased TaKaRa, Kyoto, Japan
T1 sequence (F1MN93 1-767): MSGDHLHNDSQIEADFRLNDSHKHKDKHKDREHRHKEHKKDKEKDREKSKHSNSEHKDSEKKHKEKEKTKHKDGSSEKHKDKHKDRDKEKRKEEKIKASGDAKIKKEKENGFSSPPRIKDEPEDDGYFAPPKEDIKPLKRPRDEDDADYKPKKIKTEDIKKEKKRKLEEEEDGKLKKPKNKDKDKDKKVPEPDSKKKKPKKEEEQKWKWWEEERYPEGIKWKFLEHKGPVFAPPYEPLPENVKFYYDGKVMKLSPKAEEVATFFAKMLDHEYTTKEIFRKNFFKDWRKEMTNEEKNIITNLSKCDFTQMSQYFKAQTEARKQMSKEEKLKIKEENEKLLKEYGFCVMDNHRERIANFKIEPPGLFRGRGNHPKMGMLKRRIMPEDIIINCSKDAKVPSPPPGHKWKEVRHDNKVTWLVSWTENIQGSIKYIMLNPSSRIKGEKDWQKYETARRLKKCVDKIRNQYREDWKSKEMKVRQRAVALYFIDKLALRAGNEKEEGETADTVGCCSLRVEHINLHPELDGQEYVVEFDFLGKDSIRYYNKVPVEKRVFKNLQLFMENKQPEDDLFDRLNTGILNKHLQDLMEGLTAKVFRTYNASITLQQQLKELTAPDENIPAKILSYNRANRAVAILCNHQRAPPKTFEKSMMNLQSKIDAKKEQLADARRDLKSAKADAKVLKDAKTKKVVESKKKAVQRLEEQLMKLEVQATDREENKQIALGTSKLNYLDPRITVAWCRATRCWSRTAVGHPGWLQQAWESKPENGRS
Protocol: The effect of the tested compounds on Topo I and II activities were evaluated by Topo I/II relaxation assays. The reaction products, relaxed DNA could be distinguished from supercoiled DNA by gel electrophoresis and visualized using gel imaging system. The activity of DNA topoisomerase I (TaKaRa, Kyoto, Japan) was determined by measuring the relaxation of supercoiled DNA pBR322 [32]. Camptothecin was used as a positive control. The reaction mixture was prepared according to the manufacture's protocol, and incubated at 37 °C for 30 min. The reactions were terminated by adding dye solution containing 1% SDS, 0.02% bromophenol blue and 50% glycerol. The mixtures were applied to 1% agarose gel and subjected to electrophoresis for 1 h, in 1× TAE buffer (40 mM Tris-acetate, 1 mM EDTA). Gels were stained for 30 min in 60 mL 1× TAE buffer with ethidium bromide (0.5 μg/mL). DNA bands were visualized by transillumination with UV light and then photographed by a Gel Doc XR+ System (BIO-RAD, Hercules, CA, USA).

[2] = system: SMMC-7721 cells; assay: MTT cytotoxicity assay, SMMC-7721; assay type: cell-based, human; settings: Homo sapiens, SMMC-7721, 48 h, 48 h exposure
Protocol: (§1) The in vitro cytotoxic activities of synthesized compounds were evaluated against two human hepatocarcinoma cell lines (SMMC-7721 and HepG2) and the human normal hepatocyte cell line (LO2) via MTT assay. All tested compounds were dissolved in DMSO and the stock solutions were diluted by DMEM medium before treatment of the cultured cells. […] Cell lines were obtained from American Tissue Culture Collection (ATCC). Briefly, different tumor cells were grown in DMEM medium supplemented with 10% fetal bovine serum, penicillin (100 U/mL), and streptomycin (50 μg/mL). Cells were harvested at log phase of growth and seeded in 96-well plates (100 μL/well at a density of 2 × 10^5 cells/mL). After 24 h incubation at 37 °C and 5% CO2 to allow cell attachment, cultures were exposed to various concentrations of the isolated compounds for 48 h. Finally, MTT solution (2.5 mg/mL in PBS) was added (40 μL/well). Plates were further incubated for 4 h at 37 °C, and the formazan crystals formed were dissolved by adding 150 μL/well of DMSO. Absorption at 570 nm was measured with an ELISA plate reader. […] Doxorubicin, camptothecin, and etoposide (VP-16) were co-assayed as positive controls.

[3] = system: HepG2 cells; assay: MTT cytotoxicity assay, HepG2; assay type: cell-based, human; settings: Homo sapiens, HepG2, 48 h, 48 h exposure
Protocol: as §1

[4] = system: LO2 cells; assay: MTT cytotoxicity assay, normal hepatocyte LO2; assay type: cell-based; settings: Homo sapiens, L02, 48 h exposure, normal hepatocyte cell line
Protocol: as §1

[5] = target: T2, Human Topoisomerase IIα (Homo sapiens, UniProt P11388); assay: Topoisomerase II relaxation assay (supercoiled pBR322); assay type: biochemical; settings: for inhibition at 20 µM: 20 μM compound, read-out: Topo II Inhibition (%) 20 μM; for inhibition at 100 µM: 100 μM compound, read-out: Topo II Inhibition (%) 100 μM
T2 construct: purchased USB, Affymetrix, Waltham, MA, USA
T2 sequence (P11388 whole entry): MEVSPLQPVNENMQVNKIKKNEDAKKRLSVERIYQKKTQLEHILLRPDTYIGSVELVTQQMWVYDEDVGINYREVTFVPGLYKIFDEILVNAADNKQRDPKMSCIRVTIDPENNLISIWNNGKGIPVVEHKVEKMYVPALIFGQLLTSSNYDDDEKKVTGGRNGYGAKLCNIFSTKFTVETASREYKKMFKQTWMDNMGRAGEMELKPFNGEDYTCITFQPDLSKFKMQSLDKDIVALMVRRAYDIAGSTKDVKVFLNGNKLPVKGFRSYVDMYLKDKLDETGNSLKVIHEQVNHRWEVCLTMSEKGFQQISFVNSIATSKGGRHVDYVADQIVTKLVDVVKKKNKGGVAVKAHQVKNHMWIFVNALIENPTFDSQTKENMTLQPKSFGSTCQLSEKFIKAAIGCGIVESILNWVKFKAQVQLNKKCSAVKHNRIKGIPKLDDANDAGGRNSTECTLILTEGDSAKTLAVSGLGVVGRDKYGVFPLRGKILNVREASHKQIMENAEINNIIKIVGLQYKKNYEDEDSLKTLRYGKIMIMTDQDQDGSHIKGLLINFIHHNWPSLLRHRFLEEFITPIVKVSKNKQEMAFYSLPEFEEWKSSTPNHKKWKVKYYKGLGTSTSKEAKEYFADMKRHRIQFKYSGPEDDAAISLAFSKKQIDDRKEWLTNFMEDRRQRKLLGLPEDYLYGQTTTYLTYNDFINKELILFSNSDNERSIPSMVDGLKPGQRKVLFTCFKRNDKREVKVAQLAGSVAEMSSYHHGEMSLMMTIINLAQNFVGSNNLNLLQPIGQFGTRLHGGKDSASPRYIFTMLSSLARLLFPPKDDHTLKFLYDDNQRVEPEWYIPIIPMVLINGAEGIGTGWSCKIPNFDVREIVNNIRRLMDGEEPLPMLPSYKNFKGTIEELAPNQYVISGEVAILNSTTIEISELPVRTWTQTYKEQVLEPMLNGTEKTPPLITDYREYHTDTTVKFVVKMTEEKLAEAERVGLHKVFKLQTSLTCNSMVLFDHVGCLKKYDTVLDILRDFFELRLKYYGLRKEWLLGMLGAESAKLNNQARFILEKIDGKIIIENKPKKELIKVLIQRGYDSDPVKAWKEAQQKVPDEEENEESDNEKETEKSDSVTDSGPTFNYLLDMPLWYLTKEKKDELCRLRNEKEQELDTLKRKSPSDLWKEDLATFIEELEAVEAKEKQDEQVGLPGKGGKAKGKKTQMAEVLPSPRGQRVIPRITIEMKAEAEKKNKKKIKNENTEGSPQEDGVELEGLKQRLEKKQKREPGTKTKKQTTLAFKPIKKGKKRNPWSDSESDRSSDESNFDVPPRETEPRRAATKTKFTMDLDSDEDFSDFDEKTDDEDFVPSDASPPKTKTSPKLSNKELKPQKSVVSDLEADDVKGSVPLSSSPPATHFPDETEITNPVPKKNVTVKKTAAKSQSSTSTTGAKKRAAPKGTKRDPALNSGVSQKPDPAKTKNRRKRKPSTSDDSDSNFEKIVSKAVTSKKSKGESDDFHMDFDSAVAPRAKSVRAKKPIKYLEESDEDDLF
Protocol: The effect of the tested compounds on Topo I and II activities were evaluated by Topo I/II relaxation assays. The reaction products, relaxed DNA could be distinguished from supercoiled DNA by gel electrophoresis and visualized using gel imaging system. Human Topoisomerase IIα activity was detected by measuring the relaxation of supercoiled pBR322 plasmid DNA [22]. […] For inhibition studies, the compounds were pre-incubated with human Topo IIα and DNA for 15 min. Compounds were used at the appropriate concentrations by dissolving in 2% (v/v) DMSO. DMSO didn't show detrimental effect on the enzyme activity at concentration up to 2% (v/v). Reaction mixture was incubated at 37 °C for 30 min and stopped by the addition of 7 mM EDTA. Reaction product was mixed with DNA loading dye and electrophoresed on 1% TAE-Agarose. The gel was stained with ethidium bromide (0.5 μg/mL) for 30 min, destained twice in 1× TAE buffer, and then visualized using a BIO-RAD Gel Doc XR+ System. Etoposide (VP-16) was co-assayed as a positive control.

Row | SMILES | inhibition at 100 µM [1] [%] | melting point [°C] | inhibition at 20 µM [5] [%] | inhibition at 100 µM [5] [%] | inhibition at 20 µM ([1]; 20 μM compound, read-out: Topo I Inhibition (%) 20 μM) [%] | IC50 [2] [µM] | IC50 [3] [µM] | IC50 [4] [µM]
1 | Cc1ccc2[nH]c3c(c2c1)C[C@@]1(C)C(CC[C@]2(C)C1CC=C1C4[C@@H](C)[C@H](C)CC[C@]4(C(=O)NCCCN4CCCCC4)CC[C@]12C)C3(C)C (some centres unmarked) [5d, N-(3-(Piperidin-1-yl)propyl)-5′-methyl-1′H-ursa-2,12-dieno[3,2-b]indol-28-carboxamide] | 0 | 183 to 185 | 41.3 | 81.1 |  | 0.89 ± 0.11 | 1.04 ± 0.09 | 12.8 ± 0.83
2 | Cc1ccc2[nH]c3c(c2c1)C[C@@]1(C)C(CC[C@]2(C)C1CC=C1C4[C@@H](C)[C@H](C)CC[C@]4(C(=O)NCCCN)CC[C@]12C)C3(C)C (some centres unmarked) [5a, N-(3-Aminopropyl)-5′-methyl-1′H-ursa-2,12-dieno[3,2-b]indol-28-carboxamide] | 24.5 | 205 to 207 | 31.2 | 72.3 | 12.4 | 2.02 ± 0.21 | 2.45 ± 0.38 | 21.3 ± 1.59
3 | Cc1ccc2[nH]c3c(c2c1)C[C@@]1(C)C(CC[C@]2(C)C1CC=C1C4[C@@H](C)[C@H](C)CC[C@]4(C(=O)NCCN(C)C)CC[C@]12C)C3(C)C (some centres unmarked) [4b, N-(2-(Dimethylamino)ethyl)-5′-methyl-1′H-ursa-2,12-dieno[3,2-b]indol-28-carboxamide] | 3.7 | 166 to 168 | 36.9 | 68 |  | 4.42 ± 0.71 | 4.11 ± 0.55 | 31.1 ± 2.63
4 | CCN(CC)CCCNC(=O)[C@]12CC[C@@H](C)[C@H](C)C1C1=CCC3[C@@]4(C)Cc5c([nH]c6ccc(C)cc56)C(C)(C)C4CC[C@@]3(C)[C@]1(C)CC2 (some centres unmarked) [5c, N-(3-(Diethylamino)propyl)-5′-methyl-1′H-ursa-2,12-dieno[3,2-b]indol-28-carboxamide] | 0 | 147 to 149 | 38.9 | 75.8 |  | 1.15 ± 0.14 | 1.2 ± 0.24 | 15.8 ± 1.06

Second part, led by results:

Row | inhibition at 100 µM [1] [%] | melting point [°C] | inhibition at 20 µM [5] [%] | inhibition at 100 µM [5] [%] | inhibition at 20 µM ([1]; 20 μM compound, read-out: Topo I Inhibition (%) 20 μM) [%] | SMILES | IC50 [2] [µM] | IC50 [3] [µM] | IC50 [4] [µM]
5 | 0 | 255 to 258 | 8.1 | 16.9 |  | Cc1ccc2[nH]c3c(c2c1)C[C@@]1(C)C(CC[C@]2(C)C1CC=C1C4[C@@H](C)[C@H](C)CC[C@]4(C(=O)NCCCCNC(=O)[C@]45CC[C@@H](C)[C@H](C)C4C4=CCC6[C@@]7(C)Cc8c([nH]c9ccc(C)cc89)C(C)(C)C7CC[C@@]6(C)[C@]4(C)CC5)CC[C@]12C)C3(C)C (some centres unmarked) [7c, N,N′-(butane-1,4-diyl)-bis(5′-methyl-1′H-ursa-2,12-dieno[3,2-b]indol-28-carboxamide)] | > 50 | > 50 | > 50
6 | 2 | 276 to 278 | 9.8 | 17.8 |  | Cc1ccc2[nH]c3c(c2c1)C[C@@]1(C)C(CC[C@]2(C)C1CC=C1C4[C@@H](C)[C@H](C)CC[C@]4(C(=O)NCCCNC(=O)[C@]45CC[C@@H](C)[C@H](C)C4C4=CCC6[C@@]7(C)Cc8c([nH]c9ccc(C)cc89)C(C)(C)C7CC[C@@]6(C)[C@]4(C)CC5)CC[C@]12C)C3(C)C (some centres unmarked) [7b, N,N′-(propane-1,3-diyl)-bis(5′-methyl-1′H-ursa-2,12-dieno[3,2-b]indol-28-carboxamide)] | > 50 | > 50 | > 50
7 | 0 | 301 to 303 | 9.7 | 23.8 |  | Cc1ccc2[nH]c3c(c2c1)C[C@@]1(C)C(CC[C@]2(C)C1CC=C1C4[C@@H](C)[C@H](C)CC[C@]4(C(=O)NCCNC(=O)[C@]45CC[C@@H](C)[C@H](C)C4C4=CCC6[C@@]7(C)Cc8c([nH]c9ccc(C)cc89)C(C)(C)C7CC[C@@]6(C)[C@]4(C)CC5)CC[C@]12C)C3(C)C (some centres unmarked) [7a, N,N′-(ethane-1,2-diyl)-bis(5′-methyl-1′H-ursa-2,12-dieno[3,2-b]indol-28-carboxamide)] | > 50 | > 50 | > 50
